Experiment: xn = mol fraction of the nth substance listed
Details: Liquid, Vibrating tube method, x2 = 0

c1ccccc1 [benzene] + CCCCCCCC
mass density [kg/m3]
Details | 298.15 K | 308.15 K | 318.15 K | 328.15 K
100 kPa | 873.5 | 862.9 | 852.3 | 841.5
2130 kPa | 875.1 | 864.7 | 854.2 | 843.6
4150 kPa | 876.7 | 866.4 | 856.1 | 845.6
6180 kPa | 878.4 | 868.2 | 857.9 | 847.5
8210 kPa | 879.9 | 869.9 | 859.7 | 849.5
10230 kPa | 881.5 | 871.6 | 861.5 | 851.3
11250 kPa | 882.3 | 872.4 | 862.4 | 852.3
12260 kPa | 883.1 | 873.2 | 863.2 | 853.2
14290 kPa | 884.6 | 874.8 | 865 | 855
16310 kPa | 886.1 | 876.4 | 866.6 | 856.8
18340 kPa | 887.6 | 878 | 868.3 | 858.6
20370 kPa | 889.1 | 879.5 | 869.9 | 860.3
22390 kPa | 890.5 | 881.1 | 871.6 | 862
24420 kPa | 892 | 882.6 | 873.2 | 863.7
26450 kPa | 893.4 | 884 | 874.7 | 865.3
28470 kPa | 894.7 | 885.5 | 876.2 | 866.9
29490 kPa | 895.4 | 886.2 | 877 | 867.8
30500 kPa | 896.1 | 886.9 | 877.8 | 868.6
32530 kPa | 897.5 | 888.4 | 879.2 | 870.1
34550 kPa | 898.8 | 889.7 | 880.7 | 871.7
36580 kPa | 900.1 | 891.1 | 882.1 | 873.1
38600 kPa | 901.4 | 892.5 | 883.6 | 874.7
39620 kPa | 902 | 893.2 | 884.3 | 875.4

Reference: the NIST ThermoML archive (doi:10.1016/j.jct.2007.11.009)
